# Reference: ChEMBL document CHEMBL3045100, “Comparative molecular similarity indices analysis of some 1-substituted imidazole analogs as Candida albicans P450-demethylase inhibitors” (2013)
# Test system: Candida albicans
# Assay: Antifungal activity against Candida albicans assessed as growth inhibition
# Format: functional
# Conditions: for MIC: Candida albicans
Structure (SMILES),MIC,-logMIC
O=C(CCn1ccnc1)Nc1cccc(O)c1,800 µg/mL,2.9
Cc1ncc([N+](=O)[O-])n1CCNc1ccccc1[N+](=O)[O-],100 µg/mL,2
Cc1ccc(NC(=S)Nn2c(-c3ccc([N+](=O)[O-])cc3)cnc2S)cc1,3.91 µg/mL,0.6
Cc1nccn1CC(O)c1ccc(-c2ccccc2)cc1 (configuration not stated),200 µg/mL,2.33
Cc1nccn1CC(O)c1ccc([N+](=O)[O-])cc1 (configuration not stated),300 µg/mL,2.39
COc1ccccc1NCC(=O)Cn1cc([N+](=O)[O-])nc1C,400 µg/mL,2.6
COc1ccc(NC(=S)Nn2c(-c3ccc([N+](=O)[O-])cc3)cnc2S)cc1,1.95 µg/mL,0.29
Cc1nc([N+](=O)[O-])cn1CCC(=O)Nc1ccccc1,1000 µg/mL,3
Cc1nc([N+](=O)[O-])cn1CCC(=O)Nc1ccccc1Cl,1000 µg/mL,2.93
Cc1ncc([N+](=O)[O-])n1CNc1cccc2ccccc12,100 µg/mL,2
Cc1ncc([N+](=O)[O-])n1CCNC(C)C,25 µg/mL,1.39
Cc1nc([N+](=O)[O-])cn1CCC(=O)Nc1cccc2ccccc12,500 µg/mL,2.74
O=[N+]([O-])c1ccc(-c2cnc(S)n2NC(=S)Nc2cccc3ccccc23)cc1,> 500 µg/mL,2.7
Cc1nc([N+](=O)[O-])cn1CC(=O)CNc1ccccc1,400 µg/mL,2.6
COc1ccc(NC(=S)Nn2ccnc2-c2ccc(Cl)cc2)cc1,100 µg/mL,2.02
Cc1nc([N+](=O)[O-])cn1CCC(=O)Nc1cccc(Cl)c1,500 µg/mL,2.71
Cc1ncc([N+](=O)[O-])n1CN(C(C)C)C(C)C,100 µg/mL,2

Structure (SMILES),MIC,-logMIC
Cc1ncc([N+](=O)[O-])n1CCN(C(C)C)C(C)C,25 µg/mL,1.38
Cc1ccc(NC(=S)Nn2ccnc2-c2ccc(Br)cc2)cc1,250 µg/mL,2.41
Cc1nc([N+](=O)[O-])cn1CCC(=O)Nc1ccccc1[N+](=O)[O-],1000 µg/mL,2.95
Cc1ccc(NCn2c([N+](=O)[O-])cnc2C)cc1,100 µg/mL,1.98
Cc1ncc([N+](=O)[O-])n1CCOC(c1ccccc1)c1cnccn1 (configuration not stated),400 µg/mL,2.6
Cc1ncc([N+](=O)[O-])n1CCOC(c1ccccc1)c1ccccc1S (configuration not stated),400 µg/mL,2.6
OC(Cn1ccnc1)c1ccc(Cl)cc1 (configuration not stated),250 µg/mL,2.4
Cc1nccn1CCC(=O)Nc1cccc(O)c1,800 µg/mL,2.9
Cc1ncc([N+](=O)[O-])n1CCOC(Cc1cccs1)c1ccccc1 (configuration not stated),400 µg/mL,2.6
Cc1nc([N+](=O)[O-])cn1CCC(=O)Nc1c(Br)cc(Br)cc1Br,500 µg/mL,2.64
Cc1ccc(NCC(=O)Cn2cc([N+](=O)[O-])nc2C)cc1,400 µg/mL,2.6
Cc1nccn1CC(=O)c1ccc(Cl)cc1,200 µg/mL,2.26
Cc1nc([N+](=O)[O-])cn1CCC(=O)Nc1ccccc1S,500 µg/mL,2.68
CCCCNCC(O)Cn1c([N+](=O)[O-])cnc1C (configuration not stated),100 µg/mL,1.99
Cc1ccccc1OCC(O)Cn1c([N+](=O)[O-])cnc1C (configuration not stated),100 µg/mL,2
Cc1ncc([N+](=O)[O-])n1CC(=O)CNc1ccc(Cl)cc1,800 µg/mL,2.6

# Second part, led by results:
MIC,Structure (SMILES),-logMIC
200 µg/mL,Cc1nc([N+](=O)[O-])cn1CC(CNc1ccccc1)Nc1ccccc1 (configuration not stated),2.3
400 µg/mL,Cc1ncc([N+](=O)[O-])n1CCOC(c1ccccc1)c1cccs1 (configuration not stated),2.6
100 µg/mL,Cc1ncc([N+](=O)[O-])n1CC(O)CNCC(C)C (configuration not stated),1.99
250 µg/mL,COc1ccccc1NC(=S)Nn1ccnc1-c1ccc(Br)cc1,2.4
800 µg/mL,Cc1ncc([N+](=O)[O-])n1CCC(=O)Nc1cccc(O)c1,2.9
31.2 µg/mL,Cc1ccccc1NC(=S)Nn1c(-c2ccc([N+](=O)[O-])cc2)cnc1S,1.5
250 µg/mL,O=C(Cn1ccnc1)c1ccc(Br)cc1,2.3
400 µg/mL,Cc1ncc([N+](=O)[O-])n1C(C)C(=O)Nc1cccc(O)c1 (configuration not stated),2.6
400 µg/mL,Cc1nc([N+](=O)[O-])cn1CC(=O)CNc1cccc(Cl)c1,2.6
100 µg/mL,Cc1ccccc1NC(=S)Nn1ccnc1-c1ccc(Cl)cc1,2.03
200 µg/mL,OC(Cn1ccnc1)c1ccc(Br)cc1 (configuration not stated),2.3
100 µg/mL,COc1ccccc1NC(=S)Nn1ccnc1-c1ccc(Cl)cc1,1.97
100 µg/mL,COc1ccc(NC(=S)Nn2ccnc2-c2ccc(Br)cc2)cc1,2
800 µg/mL,Cc1nccn1CC(=O)Nc1cccc(O)c1,2.9
100 µg/mL,Cc1ncc([N+](=O)[O-])n1CC(O)COc1ccccc1 (configuration not stated),2.06
100 µg/mL,S=C(Nc1cccc2ccccc12)Nn1ccnc1-c1ccc(Br)cc1,2.01
12.5 µg/mL,Cc1ncc([N+](=O)[O-])n1CCNc1ccc([N+](=O)[O-])cc1,1.1

MIC,Structure (SMILES),-logMIC
100 µg/mL,Cc1ccccc1NC(=S)Nn1ccnc1-c1ccc(Br)cc1,2.01
200 µg/mL,Cc1nccn1CC(=O)c1ccc([N+](=O)[O-])cc1,2.9
100 µg/mL,Cc1ncc([N+](=O)[O-])n1CNc1ccccc1,1.94
500 µg/mL,Cc1ccc(NC(=S)Nn2ccnc2-c2ccc(Cl)cc2)cc1,2.69
300 µg/mL,Cc1nccn1CC(=O)c1ccc(Br)cc1,2.48
50 µg/mL,CCCNCCn1c([N+](=O)[O-])cnc1C,1.68
200 µg/mL,Cc1nccn1CC(O)c1ccc(Br)cc1 (configuration not stated),2.35
500 µg/mL,Cc1ncc([N+](=O)[O-])n1CC(O)COc1ccc2ccccc2c1 (configuration not stated),2.69
100 µg/mL,O=C(Cn1ccnc1)c1ccc(Cl)cc1,2
800 µg/mL,O=C(Cn1ccnc1)Nc1cccc(O)c1,2.9
200 µg/mL,Cc1nccn1CC(O)c1ccc(Cl)cc1 (configuration not stated),2.31
300 µg/mL,Cc1nccn1CC(=O)c1ccc(-c2ccccc2)cc1,2.48
800 µg/mL,Cc1ncc([N+](=O)[O-])n1CC(=O)Nc1cccc(O)c1,2.9
250 µg/mL,S=C(Nc1cccc2ccccc12)Nn1ccnc1-c1ccc(Cl)cc1,2.42
50 µg/mL,Cc1ncc([N+](=O)[O-])n1CCNc1ccccc1,1.7
100 µg/mL,Cc1ncc([N+](=O)[O-])n1CC(O)COc1cccc2ccccc12 (configuration not stated),2.06
